The values that follow come from patent US6716858B1, “Methods for inhibiting diabetic complications” (Kansas University Medical Center, priority 1995, dated 2004).

Data set [1] concerns streptozotocin-induced diabetic rat. Briefly: STZ diabetic rat model, AGEs and crosslinking of collagen. Type of data set: in vivo. To be noted: for CML, CEL or pentosidine content of kidney collagen / gain in kidney weight / FL in skin collagen, below untreated diabetic animals / decrease of CML, CEL and fluorescence content of skin collagen toward non-diabetic levels / reduction of half-time for digestion of collagen toward normal / body weight / CML concentration in skin collagen / half-time for pepsin digestion of skin collagen / CEL in renal basement membrane collagen / CML in renal basement membrane collagen / Pentosidine in renal basement membrane collagen: diabetic rats; for FL in skin collagen, below untreated diabetic animals: 1 g/L in drinking water, week 28; for decrease of CML, CEL and fluorescence content of skin collagen toward non-diabetic levels / reduction of half-time for digestion of collagen toward normal: 7 months of diabetes; for body weight: 28 weeks; for CML concentration in skin collagen: drug in drinking water, end of study, untreated diabetic 0.124±0.01, non-diabetic 0.057±0.01; for half-time for pepsin digestion of skin collagen: control 90, untreated diabetic 450; for CEL in renal basement membrane collagen: untreated diabetic 0.08 ±0.01; for CML in renal basement membrane collagen: untreated diabetic 0.25 ± 0.04; for Pentosidine in renal basement membrane collagen: untreated diabetic 3.17 ± 1.10; for decrease in collagen-linked fluorescence toward values in non-diabetic rats: skin collagen. The protocol: Animal studies. Diabetes was induced by a single tail vein injection of 45 mg/kg of STZ in 0.1 M sodium citrate buffer, pH 4.5. Control animals were sham injected with buffer only. Diabetes was confirmed by measuring blood glucose levels at 2 and 3 days after the STZ-injection. Animals with plasma glucose higher than 16 mM were classified as diabetic. The diabetic rats were divided randomly into an untreated diabetic group (n=12) and two diabetic treatment groups, receiving either PM (n=13) or AG (n=12) at 1 g/L in drinking water. Two non-diabetic control groups were included, one receiving no treatment (n=13), the other receiving PM(HCl)2 at 2 g/L in drinking water (n=12); the higher dose of PM in the PM-treated control group was designed to compensate, in part, for the lower water intake of non-diabetic, compared to diabetic animals. All animals were housed individually with a light dark cycle of 12 hours each, and had free access to food and water. To maintain body weight and to limit hyperglycemia, diabetic animals received 3 IU of ultralente insulin (Humulin U, Eli Lilly) three times per week; this was increased to 5 IU after week 15 to adjust for the increase in body weight.
Glycemic control. Glycemia was monitored by measurement of plasma glucose and glycated hemoglobin every four weeks, using a Sigma Trinder assay Kit (Sigma # 315). Blood (non-fasting) was obtained from the tail vein, using heparinized microhematocrit tubes, followed by sedimentation of red blood cells (RBC) in a bench-top microhematocrit centrifuge. A sample of plasma (5 μL) or glucose standard was mixed with 300 μL of reagent in a 96-well microtiter plate. The plate was shaken for 18 min and the absorbance at 490 nm was measured in a Wallac Victor 1420 multilabel counter (Wallac Inc. Gaithersburg, Md.). Glycated hemoglobin (GlcHb) was measured on whole blood by boronate affinity chromatography using a Sigma kit for total glycated hemoglobin (Sigma # 442-B).
Necropsy and tissue sampling. Rats were treated according to the guidelines of the Institutional Animal Care and Use Committee of the University of South Carolina. Blood was drawn from anaesthetized (halothane) rats by heart puncture and transferred into heparinized vacutainer tubes on ice; an aliquot was removed for analysis of glycated hemoglobin. Rats were then killed by over-anesthetization, and liver and kidneys were removed, the kidney decapsulated, and both organs rinsed in PBS buffer, and weighed. The right kidney was cut in half transversely, and one half was removed for fixation for electron and light microscopy. The remainder of the right kidney and the whole left kidney were frozen at −70° C. until processed for isolation of collagen. Abdominal skin (2 cm^2) was also removed, rinsed in phosphate buffered saline (PBS) and stored at −70° C. Blood was separated into plasma and RBC within 30 minutes by centrifugation in a refrigerated benchtop centrifuge. RBCs were lysed in an equal volume of deionized water, and plasma and RBC lysates were stored at −70° C.
Isolation and analysis of collagen. The insoluble fraction of skin collagen was prepared by scraping the skin with a single-edged razor blade to remove hair and adventitious tissue, followed by a series of extractions with 0.5 M NaCl, 0.5 M acetic acid and chloroform/methanol (2:1 v/v), as described previously (Dyer, et al. 1993. J. Clin. Invest. 91:2463-2469). Total renal collagen was prepared from ˜1.5 kidneys by an adaptation of the procedure of Fox et al. (J. Biol. Chem. 256:9313-9315 (1981)). Briefly, kidneys were minced and homogenized with a hand-held glass homogenizer in 10 mL of ice-cold water, containing 1 mM EDTA and 0.05% sodium azide. Remaining intact cells and subcellular organelles were then lysed by addition of another 15 mL of water, followed by incubation for 1 hour at 4° C., then centrifugation of the lysate for 30 minutes at 10,000 rpm at 4° C. in a Beckman (Palo Alto, Calif.) J-21 centrifuge. […]

The subject of data set [2] is post-Amadori AGE formation, BSA Amadori intermediate. Nature of the data set: Interrupted (post-Amadori) ribose glycation assay, BSA. The format is biochemical, bovine. The protocol: ELISA detection of AGE products. The general method of Engvall (1981, Methods Enzymol. 70:419-439) was used to perform the ELISA. Typically, glycated protein samples were diluted to approximately 1.5 ug/ml in 0.1 M sodium carbonate buffer of pH 9.5 to 9.7. The protein was coated overnight at room temperature onto 96-well polystyrene plates by pippetting 200 ul of the protein solution in each well (0.3 ug/well). After coating, the protein was washed from the wells with a saline solution containing 0.05% Tween-20. The wells were then blocked with 200 ul of 1% casein in carbonate buffer for 2 h at 37° C. followed by washing. Rabbit anti-AGE antibodies were diluted at a titer of about 1:350 in incubation buffer, and incubated for 1 h at 37° C., followed by washing. In order to minimize background readings, antibodies R479 used to detect glycated RNase were raised against glycated BSA, and antibodies R618 used to detect glycated BSA and glycated Hb were raised against glycated RNase. An alkaline phosphatase-conjugated antibody to rabbit IgG was then added as the secondary antibody at a titer of 1:2000 or 1:2500 (depending on lot) and incubated for 1 h at 37° C., followed by washing. The p-nitrophenylphosphate substrate solution was then added (200 ul/well) to the plates, with the absorbance of the released p-nitrophenolate being monitored at 410 nm with a Dynatech MR 4000 microplate reader.
Glycation was first carried out by incubating protein (10 mg/ml) with 0.5 M ribose at 37° C. in 0.4 M phosphate buffer at pH 7.5 containing 0.2% sodium azide for 24 h in the absence of inhibitors. Glycation was then interrupted to remove excess and reversibly bound (Schiff base) sugar by extensive dialysis against frequent cold buffer changes at 4° C. The glycated intermediate samples containing maximal amount of Amadori product and little AGE (depending on protein) were then quickly warmed to 37° C. without re-addition of ribose. This initiated conversion of Amadori intermediates to AGE products in the absence or presence of various concentrations (typically 3, 15 and 50 mM) of prospective inhibitors. Aliquots were taken and frozen at various intervals for later analysis. The solutions were kept in capped tubes and opened only to remove timed aliquots that were immediately frozen for later carrying out the various analyses.

[3] abbreviates: 24 h in 0.5 M ribose, then free ribose removed, 37° C.

Take `Cc1ncc(CO)c(CN)c1O` [pyridoxamine]: in data set [1], the “CML, CEL or pentosidine content of kidney collagen” value was “not a significant decrease”; the “gain in kidney weight” value is recorded as “partially inhibit the gain in kidney weight”; the “FL in skin collagen, below untreated diabetic animals” value was ~12%; the “decrease of CML, CEL and fluorescence content of skin collagen toward non-diabetic levels” value is listed as ~50%. Further, in data set [1], the “reduction of half-time for digestion of collagen toward normal” value is ~25%, the body weight entry is recorded as “weighed slightly less than the untreated diabetic group”, the “CML concentration in skin collagen” value amounted to 0.092±0.02 mmol/mol lysine and the “half-time for pepsin digestion of skin collagen” value worked out at 350 min. Besides, in data set [1], the “CEL in renal basement membrane collagen” value was determined as 0.08 ± 0.008 mmol/mol Lys, the “CML in renal basement membrane collagen” value was 0.23 ±0.03 mmol/mol Lys, the “Pentosidine in renal basement membrane collagen” value is 3.00 ± 0.90 μmol/mol Lys and the “decrease in collagen-linked fluorescence toward values in non-diabetic rats” value is on record as ~40%.
For the molecule `N=C(N)NN` [aminoguanidine, reference compound], in data set [1], the “CML, CEL or pentosidine content of kidney collagen” value is “not a significant decrease”; the “gain in kidney weight” value is given as “partially inhibit the gain in kidney weight”; the “FL in skin collagen, below untreated diabetic animals” value is ~12%; the “decrease of CML, CEL and fluorescence content of skin collagen toward non-diabetic levels” value was ~50%. Besides, in data set [1], the “reduction of half-time for digestion of collagen toward normal” value is ~25%, the body weight result is recorded as “weighed slightly less than the untreated diabetic group”, the “CML concentration in skin collagen” value turned out to be 0.10±0.02 mmol/mol lysine and the “half-time for pepsin digestion of skin collagen” value was 300 min. For the same molecule, in data set [1], the “CEL in renal basement membrane collagen” value was 0.07 ± 0.008^C mmol/mol Lys, the “CML in renal basement membrane collagen” value was 0.24 ± 0.05 mmol/mol Lys, the “Pentosidine in renal basement membrane collagen” value is recorded as 2.47 ± 0.64^D μmol/mol Lys and the “decrease in collagen-linked fluorescence toward values in non-diabetic rats” value is ~40%. In addition, the “inhibition of post-Amadori AGE formation” value in data set [2] (50 mM inhibitor) is “about 20%”. Also, the “inhibition of post-Amadori AGE formation” value in data set [2] (setting [3]) was “Comparable results”.
On to `Cc1ncc(C[n+]2csc(CCO[P@](=O)(O)OP(=O)(O)O)c2C)c(N)n1` [thiamine pyrophosphate], for which, in data set [2] (setting [3]), the “inhibition of post-Amadori AGE formation” value was “inhibited AGE formation more effectively than the other B1 derivatives”.
